{"source": "patent US9339034B2", "about": "“Use of thaxtomin for selective control of rice and aquatic based weeds” (MARRONE BIO INNOVATIONS, INC., priority 2009, dated 2016)", "origin": "cited, not measured here", "test_system": "weeds", "details": "in vivo; cited from earlier work", "data": [{"smiles": "C=C(CO)C(C)(O)CC(=O)O", "note": "(stereo not shown) [mevalocidin]", "values": [{"measurement": "time to kill weeds", "result": "3-4 weeks"}]}]}
